Measurements: ChEMBL document CHEMBL3885881, “DrugMatrix”

Species on record: Rattus norvegicus
Experiment: DrugMatrix - Regimen: Daily Repeat
Type: toxicity, organism-based, Sprague-Dawley
Parameters: regimen Daily Repeat, gender Male, age 6-8 weeks
Conditions: in vivo, po, 0 mg/kg, route oral GAVAGE, dose level Control, vehicle 100 % WATER
[1] = 72 h, tissue Plasma, time 3 day
[2] = 120 h, tissue Blood, time 5 day
[3] = 120 h, tissue Plasma, time 5 day

CADMIUM ACETATE
ABSOLUTE BASOPHIL (72 h, tissue Blood, time 3 day): 0 CELLS/uL | ABSOLUTE EOSINOPHIL (72 h, tissue Blood, time 3 day): 0 CELLS/uL | ABSOLUTE LYMPHOCYTE (72 h, tissue Blood, time 3 day): 10386.33 CELLS/uL | ABSOLUTE MONOCYTE (72 h, tissue Blood, time 3 day): 88.5 CELLS/uL | ABSOLUTE SEGMENTED NEUTROPHIL (72 h, tissue Blood, time 3 day): 1008.5 CELLS/uL | BASOPHIL (72 h, tissue Blood, time 3 day): 0% | EOSINOPHIL (72 h, tissue Blood, time 3 day): 0% | ERYTHROCYTE COUNT (72 h, tissue Blood, time 3 day): 5.16 x10E6/uL | HEMATOCRIT (72 h, tissue Blood, time 3 day): 32.43% | HEMOGLOBIN (72 h, tissue Blood, time 3 day): 12.98 G/DL | LEUKOCYTE COUNT (72 h, tissue Blood, time 3 day): 11.48 x10E3/uL | LYMPHOCYTE (72 h, tissue Blood, time 3 day): 92.33% | MEAN CORPUSCULAR HEMOGLOBIN (72 h, tissue Blood, time 3 day): 25.23 pg | MEAN CORPUSCULAR HEMOGLOBIN CONCENTRATION (72 h, tissue Blood, time 3 day): 40.08 G/DL | MEAN CORPUSCULAR VOLUME (72 h, tissue Blood, time 3 day): 62.95 fL | MONOCYTE (72 h, tissue Blood, time 3 day): 0.67% | NEUTROPHIL (72 h, tissue Blood, time 3 day): 7% | NUCLEATED RED BLOOD CELLS (72 h, tissue Blood, time 3 day): 0 /100WBC | PLATELET COUNT (72 h, tissue Blood, time 3 day): 1016.67 x10E3/uL | ALANINE AMINOTRANSFERASE [1]: 62.17 u/L | ALBUMIN [1]: 3.95 G/DL | ALKALINE PHOSPHATASE [1]: 363.5 u/L | ASPARTATE AMINOTRANSFERASE [1]: 118 u/L | BLOOD UREA NITROGEN [1]: 14.5 mg/dL | CARBON DIOXIDE [1]: 22.83 mmol/L | CHOLESTEROL [1]: 66 mg/dL | CREATINE PHOSPHOKINASE [1]: 1308.83 u/L | CREATININE [1]: 0.22 mg/dL | GLUCOSE [1]: 187.5 mg/dL | LACTATE DEHYDROGENASE [1]: 380.17 u/L | LIPASE [1]: 16.17 u/L | PHOSPHORUS [1]: 14.27 mg/dL | POTASSIUM [1]: 6.8 MEQ/L | TOTAL BILIRUBIN [1]: 0.2 mg/dL | TOTAL PROTEIN [1]: 5.68 G/DL | URIC ACID [1]: 2.87 mg/dL | ABSOLUTE BASOPHIL [2]: 0 CELLS/uL | ABSOLUTE EOSINOPHIL [2]: 80 CELLS/uL | ABSOLUTE LYMPHOCYTE [2]: 13301.33 CELLS/uL | ABSOLUTE MONOCYTE [2]: 180.83 CELLS/uL | ABSOLUTE SEGMENTED NEUTROPHIL [2]: 1187.83 CELLS/uL | BASOPHIL [2]: 0% | EOSINOPHIL [2]: 0.5% | ERYTHROCYTE COUNT [2]: 5.54 x10E6/uL | HEMATOCRIT [2]: 35.65% | HEMOGLOBIN [2]: 14.22 G/DL | LEUKOCYTE COUNT [2]: 14.75 x10E3/uL | LYMPHOCYTE [2]: 90.67% | MEAN CORPUSCULAR HEMOGLOBIN [2]: 25.65 pg | MEAN CORPUSCULAR HEMOGLOBIN CONCENTRATION [2]: 39.88 G/DL | MONOCYTE [2]: 1% | NEUTROPHIL [2]: 7.83% | NUCLEATED RED BLOOD CELLS [2]: 0.17 /100WBC | PLATELET COUNT [2]: 1285.33 x10E3/uL | ALANINE AMINOTRANSFERASE [3]: 51.67 u/L | ALKALINE PHOSPHATASE [3]: 391.5 u/L | ASPARTATE AMINOTRANSFERASE [3]: 99.5 u/L | BLOOD UREA NITROGEN [3]: 15.5 mg/dL | CARBON DIOXIDE [3]: 28.33 mmol/L | CHOLESTEROL [3]: 67.83 mg/dL | CREATINE PHOSPHOKINASE [3]: 771.33 u/L | CREATININE [3]: 0.23 mg/dL | GLUCOSE [3]: 156.5 mg/dL | LACTATE DEHYDROGENASE [3]: 544.33 u/L | LIPASE [3]: 10.17 u/L | PHOSPHORUS [3]: 12.03 mg/dL | POTASSIUM [3]: 6.81 MEQ/L | TOTAL BILIRUBIN [3]: 0.22 mg/dL | TOTAL PROTEIN [3]: 6 G/DL | URIC ACID [3]: 2.18 mg/dL
